The source of these data is US12558345B2, “CHK1/2 inhibitors for use in the treatment of neuroblastomas and/or soft tissue sarcomas” (Eli Lilly and Company, priority 2015, dated 2026).

Structures can show the parent of a compound that is named as a salt.

One experiment has as its system adult sarcoma models. The experiment in a line: Adult sarcoma models evaluated in vivo (panel). Set-up: species or system mouse. An excerpt:
For all “CTG” models (encompassing human RMS, DSRCT, EWS, OS and LMS patient-derived xenograft models), female NCr nude spontaneous mutant mice (5-8 weeks old, Taconic) are implanted unilaterally in the flank region with tumor fragments harvested from donor animals, each implanted from a specific passage lot.
For all “ST” models (encompassing RMS and LMS), patient-derived xenografts are established from viable human tumor tissue and are serially passaged in animals a limited number of times to maintain tumor heterogeneity. In subcutaneous models, athymic nude mice (Crl:NU(NCr)-Foxn1nu) or CB-17 SCID mice (CRL-CB17/Icr-Prkdcscid/IcrIcoCrl) are injected or implanted unilaterally into the flank with tumor fragments harvested from host animals, each implanted from a specific passage lot. For all studies, measure tumor growth and body weight twice per week beginning on the seventh day after implantation. When tumor size reaches 150-300 mm^3, randomize animals and group into groups of 4-7 animals. Prepare test compound in an appropriate vehicle (e.g. vehicle can be 20% Captisol® in sterile water) and administer subcutaneously for three consecutive days followed by a four day dosing holiday and repeat for a minimum of four weeks. Tumor response is determined by tumor volume measurement performed twice per week during the course of treatment.

Experiment [1] has as its system HT-29 colon tumor xenograft. Put plainly: Human Tumor Xenograft Models, with gemcitabine: HT-29. It counts as in vivo, mouse. The protocol:
The ability of CHK1 inhibitors to effect tumor killing can be determined in vivo using the Calu-6 lung and HT-29 colon tumor xenograft efficacy models. Calu-6 lung cancer cells (ATCC) are cultured in growth media (MEM w/ Earle's salts (Invitrogen) with L-glutamine (Gibco™) supplemented with 10% (v/v) heat inactivated FBS (Gibco™), 1×MEM non-essential amino acids (Gibco™), 1×sodium pyruvate (Gibco™)) and HT-29 colon cancer cells (ATCC) are cultured in growth media, (McCoy's 5A medium (Gibco™) supplemented with 10% FBS (Gibco™)) and expanded. Cells are harvested and washed twice with phosphate buffered saline and 5×10^6 cells (HT-29) or 1×10^6 cells (Calu-6) in growth media (without serum) are mixed with equal volume of BD Matrigel™ matrix (BD Bioscience, Franklin, NJ), then injected subcutaneously into the flank of nude mice (CD-1 nu/nu, from Charles River Labs, Wilmington, MA). At about day 16 after implant (150-200 mm^3), gemcitabine is formulated fresh in saline daily and administered to animals by intraperitoneal route at 60 mg/kg dose. […] Tumor response is determined by tumor volume measurement performed twice a week during the course of treatment. Tumor growth inhibition (TGI) is calculated as the percent reduction in mean tumor size of a compound treated group from the mean tumor size of the vehicle-treated control group.
(In general: A xenograft is tissue or cells of one species grown in another, often human tumour cells in immunodeficient mice.)

In experiment [2] the test system is G2M DNA damage checkpoint (pHH3) in HeLa cells. Put plainly: Doxorubicin-Induced G2M Checkpoint Abrogation HeLa Cell-Based Acumen Assay. Particulars: Homo sapiens, 125 nM doxorubicin 24 hours, compound seven hours, Relative EC50. Here is the method: An inhibitor of CHK1 will disable the G2M DNA damage checkpoint in p53-minus tumor cells treated with the topoisomerase II inhibitor, doxorubicin. A measurement of G2M checkpoint abrogation is the phosphorylation of histone H3 on serine 10 that occurs after cells traverse the G2M checkpoint and enter mitosis. The following high content imaging assay can be used to measure the phosphorylation of histone H3 in cells. HeLa cells (purchased from ATCC) are cultured in MEM Media (Gibco™) supplemented with 10% (v/v) FBS and plated at 2000 cells per well in poly D-lysine coated clear bottom black plates (BD Biocoat Cat #3504640), 100 μL volume per well. Plates are then incubated in a cell culture incubator for 18-24 hours (37° C., 5% CO2 and 95% relative humidity). […] Plates are scanned with ACUMEN EXPLORER™ Laser-scanning fluorescence microplate cytometers using 488 nm excitation (TTP LABTECH LTC) to measure pHH3 and DNA content including 2 N, and 4 N. The pHH3 positive cells are identified by mean intensity at 519 nm from Alexa 488. […] The final readout for each population is determined by normalizing to the % of total cells producing a final assay output of % pHH3, %2 N and %4 N. 100% activity is then determined by treating cells with the maximum concentration of an inhibitor control compound at 100 nM to determine the final % activity of each compound. […]

On to `COc1cccc(OCCCN)c1-c1cc(Nc2cnc(C#N)cn2)n[nH]1` [Example 5, 5-(5-(2-(3-Aminopropoxy)-6-methoxyphenyl)-1H-pyrazol-3-ylamino)pyrazine-2-carbonitrile methanesulfonic acid monohydrate], for which, in the experiment on adult sarcoma models, the “adult sarcoma models sensitive to single agent treatment (models)” value is 10/12 and the “adult sarcoma models sensitive to single agent treatment (percent)” value amounted to 83%.
In the case of `COc1cccc(OCCCN)c1-c1cc(Nc2cnc(C#N)cn2)n[nH]1` [Example 2, 5-(5-(2-(3-Aminopropoxy)-6-methoxyphenyl)-1H-pyrazol-3-ylamino)pyrazine-2-carbonitrile dihydrogen chloride salt], the “increase in tumor growth inhibition over gemcitabine alone” value in experiment [1] (HT-29, combination with gemcitabine) was “up to a six-fold increase”. In addition, the anti-tumor activity result in experiment [1] (HT-29, dosed alone and in combination with gemcitabine 60 mg/kg ip, compound iv +24 hours, Q3Dx4) is “excellent dose dependent anti-tumor activity”. The EC50 (in general, the concentration that produces a half-maximal response) in experiment [2] turned out to be 10.5 nM.
